We go through 22 molecules from patent US20010039287A1, “AROMATIC SULFONE HYDROXAMIC ACID METALLOPROTEASE INHIBITOR” (priority 1997, published 2001).

For one data set, the target named is recombinant human MMP-9 (Homo sapiens, UniProt P14780). The data set can be described thus: biochemical. Conditions: Inhibition Table B; read-out: MMP-9 IC50.
The next data set deals with recombinant human MMP-13 (Homo sapiens, UniProt P45452). As to the kind of experiment: biochemical. As to conditions: Inhibition Table B; read-out: MMP-13 IC50.
The next data set concerns the target T1, recombinant human MMP-2 (Homo sapiens, UniProt P08253).
T1 sequence (P08253 110-660): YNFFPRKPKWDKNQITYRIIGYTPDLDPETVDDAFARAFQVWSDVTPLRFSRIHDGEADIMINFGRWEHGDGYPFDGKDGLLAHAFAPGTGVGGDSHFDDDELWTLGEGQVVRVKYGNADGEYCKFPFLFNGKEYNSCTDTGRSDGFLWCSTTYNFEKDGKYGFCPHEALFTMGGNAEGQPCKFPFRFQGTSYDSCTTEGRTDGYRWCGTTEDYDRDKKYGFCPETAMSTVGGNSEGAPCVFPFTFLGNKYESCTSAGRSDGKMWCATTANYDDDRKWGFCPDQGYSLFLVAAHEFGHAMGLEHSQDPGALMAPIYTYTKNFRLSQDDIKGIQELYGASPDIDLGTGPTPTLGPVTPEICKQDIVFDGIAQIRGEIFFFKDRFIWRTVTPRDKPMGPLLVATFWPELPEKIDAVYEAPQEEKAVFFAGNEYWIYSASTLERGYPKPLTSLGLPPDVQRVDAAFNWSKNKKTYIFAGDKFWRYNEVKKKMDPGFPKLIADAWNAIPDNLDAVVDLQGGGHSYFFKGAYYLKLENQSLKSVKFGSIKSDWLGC
As to the kind of experiment: biochemical. Conditions: Inhibition Table B; read-out: MMP-2 IC50.

The target of another data set is T2, recombinant human MMP-1 (Homo sapiens, UniProt P03956).
T2 construct: made in house; host or cells: transfected HT-1080 cells (provided by Dr. Harold Welgus, Washington University)
T2 sequence (P03956 100-469): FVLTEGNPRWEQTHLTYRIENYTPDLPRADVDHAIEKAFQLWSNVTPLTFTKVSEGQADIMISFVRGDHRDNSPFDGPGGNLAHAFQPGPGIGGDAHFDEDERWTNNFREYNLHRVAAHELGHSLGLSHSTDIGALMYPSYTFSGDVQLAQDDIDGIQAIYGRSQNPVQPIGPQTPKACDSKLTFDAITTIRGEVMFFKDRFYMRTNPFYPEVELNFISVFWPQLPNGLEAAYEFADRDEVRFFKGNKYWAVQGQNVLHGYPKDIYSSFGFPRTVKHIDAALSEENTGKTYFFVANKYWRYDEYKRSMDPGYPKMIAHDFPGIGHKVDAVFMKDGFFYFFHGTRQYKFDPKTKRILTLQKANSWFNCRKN
The data set can be described thus: biochemical. Conditions: Inhibition Table B; read-out: MMP-1 IC50.

For data set [1] the following is noted: Rat Intravenous 20 mpk.

Structures are written as SMILES. Where a name gives a salt, the structure may show the parent alone.

Chain of recombinant human MMP-9 (P14780 107-707 limits assumed): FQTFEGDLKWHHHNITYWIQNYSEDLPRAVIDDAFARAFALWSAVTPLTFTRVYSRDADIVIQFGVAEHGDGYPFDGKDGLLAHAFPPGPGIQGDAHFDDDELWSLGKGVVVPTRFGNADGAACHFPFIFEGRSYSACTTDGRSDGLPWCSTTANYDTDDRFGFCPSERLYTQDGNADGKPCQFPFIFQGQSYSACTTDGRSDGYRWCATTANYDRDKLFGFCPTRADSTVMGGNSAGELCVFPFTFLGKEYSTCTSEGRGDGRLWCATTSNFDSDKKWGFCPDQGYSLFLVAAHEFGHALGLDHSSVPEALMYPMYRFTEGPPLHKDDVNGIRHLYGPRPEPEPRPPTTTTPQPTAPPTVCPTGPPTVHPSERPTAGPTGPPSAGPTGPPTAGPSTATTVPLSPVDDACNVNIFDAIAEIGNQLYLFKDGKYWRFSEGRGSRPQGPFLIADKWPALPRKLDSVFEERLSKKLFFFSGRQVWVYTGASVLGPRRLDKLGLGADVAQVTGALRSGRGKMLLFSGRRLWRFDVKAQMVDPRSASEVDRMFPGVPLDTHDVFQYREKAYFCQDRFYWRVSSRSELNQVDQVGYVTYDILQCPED

Broadly, the IC50 is the concentration needed to halve the response being measured. As for `O=C(NO)C1(S(=O)(=O)c2ccc(N3CCC(Oc4ccc5c(c4)OCO5)CC3)cc2)CCOCC1` [Example 63, 4-[[4-[4-(1,3-Benzodioxol-5-yloxy)-1-piperidinyl]phenyl]sulfonyl]-tetrahydro-N-hydroxy-2H-pyran-4-carboxamide, Monohydrochloride], the half-inhibitory concentration (IC50) on recombinant human MMP-9 was 530 nM; at recombinant human MMP-13, 1.5 nM; at recombinant human MMP-2 it was 18.1 nM; at recombinant human MMP-1 it was above 10000 nM.
In the case of `COc1ccc(Sc2ccc(S(=O)(=O)C3(C(=O)NO)CCOCC3)cc2)cc1` [Example 65, Tetrahydro-N-hydroxy-4-[[4-(4-methoxyphenylthio)phenyl]-sulfonyl]-2H-pyran-4-carboxamide], the IC50 on recombinant human MMP-9 is 4.4 nM; on recombinant human MMP-13, 0.7 nM; at recombinant human MMP-2, 0.6 nM; at recombinant human MMP-1, 8000 nM.
The like results for `O=C(NO)C1(S(=O)(=O)c2ccc(NCc3ccccc3)cc2)CCOCC1` [Example 68, tetrahydro-N-hydroxy-4-[[4-[(4-phenylmethyl)amino]phenyl]-sulfonyl]-2H-pyran-4-carboxamide, Monohydrochloride] were, in that order, 130 nM, 6 nM, 5.3 nM and above 10000 nM.
`O=C(NO)C1(S(=O)(=O)c2ccc(Oc3cc(F)cc(F)c3)cc2)CCOCC1` [Example 70, 4-[[4-(3,5-difluorophenoxy)phenyl]sulfonyl]tetrahydro-N-hydroxy-2H-pyran-4-carboxamide]: the IC50 at recombinant human MMP-9 was 7.3 nM; at recombinant human MMP-13, 0.8 nM; on recombinant human MMP-2, 0.2 nM; at recombinant human MMP-1, 1500 nM.
In the case of `Cc1ccc(Oc2ccc(S(=O)(=O)C3(C(=O)NO)CN(C)CN(C)C3)cc2)cc1C` [Example 78, 5-[4-(3,4-dimethylphenoxy)phenyl]sulfonyl-N^5-hydroxy-1,3-dimethylhexahydro-5-pyrimidinecarboxamide, Dihydrochloride], the half-inhibitory concentration (IC50) on recombinant human MMP-9 was 50 nM; at recombinant human MMP-13, 10 nM; at recombinant human MMP-2, 6 nM; on recombinant human MMP-1, above 10000 nM.
For `Cc1cc(Oc2ccc(S(=O)(=O)C3(C(=O)NO)CCNCC3)cc2)ccc1Cl.Cl` [Example 79], in data set [1], the “t½ Hour” value came out at 1.82 h.
`Cc1cc(Oc2ccc(S(=O)(=O)C3(C(=O)NO)CCN(CC(=O)O)CC3)cc2)ccc1Cl` [Example 80, 4-[[4-(4-chloro-3-methylphenoxy)phenyl]sulfonyl]-4-(hydroxyamino)carbonyl]-1-piperidineacetic Acid, Monohydrochloride]: the IC50 is 1.8 nM on recombinant human MMP-9, 0.2 nM at recombinant human MMP-13, 0.1 nM at recombinant human MMP-2 and 3000 nM at recombinant human MMP-1.
Regarding `Cc1cc(Oc2ccc(S(=O)(=O)C3(C(=O)NO)CCNCC3)cc2)ccc1F` [Example 83, 4-[[4-(4-fluoro-3-methylphenoxy)phenyl]sulfonyl]-N-hydroxy-4-piperidine Carboxamide, Monohydrochloride], the concentration for half-maximal inhibition (IC50) on recombinant human MMP-9 turned out to be 5 nM; at recombinant human MMP-13, 1.5 nM; on recombinant human MMP-2, 1.2 nM; at recombinant human MMP-1, 8000 nM.
The like results for `C#CCN1CCC(C(=O)NO)(S(=O)(=O)c2ccc(Oc3ccc(Cl)cc3)cc2)CC1` [Example 85, 4-[[4-(4-chlorophenoxy)-phenyl]sulfonyl]-N-hydroxy-1-(2-propynyl)-4-piperidinecarboxamide, Monohydrochloride] were, in that order, 0.4 nM, below 0.1 nM, below 0.1 nM and 500 nM.
The corresponding values for `O=C(O)CN1CCC(C(=O)NO)(S(=O)(=O)c2ccc(Sc3ccccc3)cc2)CC1` [Example 87, 4-[(hydroxyamino)-carbonyl]-4-[[4-(phenylthio)phenyl]-sulfonyl]-1-piperidineacetic Acid, Monohydrochloride] are 13.9 nM, 0.35 nM, 0.8 nM and 7200 nM.
The like results for `O=C(O)CN1CCC(C(=O)NO)(S(=O)(=O)c2ccc(Oc3ccc(Cl)cc3)cc2)CC1` [Example 88, 4-[[4-(4-chlorophenoxy)-phenyl]sulfonyl]-4-[(hydroxyamino)-carbonyl]-1-piperidineacetic Acid, Monohydrochloride] were, in that order, 0.5 nM, 0.2 nM, 0.2 nM and 1100 nM.
In the case of `O=C(NO)C1(S(=O)(=O)c2ccc(Oc3ccc(Cl)cc3)cc2)CCN(CCN2CCOCC2)CC1` [Example 89, 4-[[4-(4-chlorophenoxy)-phenyl]sulfonyl]-N-hydroxy-1-[2-(4-morpholinyl)ethyl]-4-piperidine-carboxamide, Dihydrochloride], the IC50 on recombinant human MMP-9 turned out to be 0.4 nM; on recombinant human MMP-13, 0.25 nM; on recombinant human MMP-2 it was 0.15 nM; on recombinant human MMP-1 it was 1200 nM.
The like results for `O=C(NO)C1(S(=O)(=O)c2ccc(-c3ccc(Cl)cc3)cc2)CCNCC1` [Example 91, 4-[(4′-chloro[1,1′-biphenyl]-4-yl)sulfonyl]-N-hydroxy-4-piperidinecarboxamide, Monohydrochloride] were, in that order, 40 nM, 2.1 nM, 1.5 nM and 1800 nM.
The like results for `Cc1ccc(Oc2ccc(S(=O)(=O)C3(C(=O)NO)CCOCC3)cc2)cc1C` [Example 96, 4-[[4-(3,4-dimethyl-phenoxy)phenyl]ssulfonyl]tetrahydro-N-hydroxy-2H-pyran-4-carboxamide] were, in that order, 1.3 nM, 0.3 nM, 0.2 nM and 5000 nM.
On to `O=C(NO)C1(S(=O)(=O)c2ccc(Oc3ccc(Cl)cc3)cc2)CCOCC1` [Example 100, 4-[[4-(4-chlorophenoxy)-phenyl]sulfonyl]-tetrahydro-N-hydroxy-2H-pyran-4-carboxamide], for which the “t½ Hour” value in data set [1] turned out to be 1.50 h.
Regarding `O=C(O)CCc1ccc(Oc2ccc(S(=O)(=O)C3(C(=O)NO)CCOCC3)cc2)cc1` [Example 105, 4-[4-[[tetrahydro-4-[(hydroxyamino)carbonyl]-2H-pyran-4-yl]sulfonyl]phenoxy]benzenepropanoic Acid], the IC50 at recombinant human MMP-9 is 114 nM; at recombinant human MMP-13 it was 0.85 nM; on recombinant human MMP-2, 3500 nM; on recombinant human MMP-1 it was above 10000 nM.
Regarding `O=C(NO)C1(S(=O)(=O)c2ccc(Oc3ccccc3)cc2)CCS(=O)(=O)CC1` [Example 110], the half-inhibitory concentration (IC50) was 10 nM at recombinant human MMP-9, 0.5 nM on recombinant human MMP-13, 0.4 nM at recombinant human MMP-2 and 2700 nM at recombinant human MMP-1.
`O=C(NO)C1(S(=O)(=O)c2ccc(Sc3ccc(O)cc3)cc2)CCSCC1` [Example 114]: the IC50 at recombinant human MMP-9 turned out to be 31.6 nM; on recombinant human MMP-13 it was 0.4 nM; at recombinant human MMP-2, 0.65 nM; at recombinant human MMP-1, 3000 nM.
The corresponding values for `NCCc1ccc(Oc2ccc(S(=O)(=O)C3(C(=O)NO)CCSCC3)cc2)cc1` [Example 116, tetrahydro-N-hydroxy-4-[[4-[4-tyramine)phenoxy]phenyl] Sulfonyl 2H-thiopyran-4-carboxamide] are 15.3 nM, 5.5 nM, 2 nM and 2350 nM.
Take `O=C(NO)C1(S(=O)(=O)c2ccc(Sc3ccncc3)cc2)CCSCC1` [Example 119, tetrahydro-N-hydroxy-4-[[4-(4-pyridinylthio)-phenyl]sulfonyl]-2H-thiopyran-4-carboxamide, Monohydrochloride]: the IC50 at recombinant human MMP-9 was 30 nM; on recombinant human MMP-13, 1.7 nM; at recombinant human MMP-2, 1.5 nM; on recombinant human MMP-1 it was above 10000 nM.
The corresponding values for `CC(=O)N1CCN(c2ccc(Oc3ccc(S(=O)(=O)C4(C(=O)NO)CCOCC4)cc3)cc2)CC1` [Example 123, 4-[[4-[4-(4-acetyl-1-piperazinyl)phenoxy]phenyl]sulfonyl]-tetrahydro-N-hydroxy-2H-pyran-4-carboxamide, Trifluoroacetic Acid Salt] are 27.8 nM, 1.8 nM, 1.8 nM and 3600 nM.
As to `O=C(NO)C1(S(=O)(=O)c2ccc(Oc3ccc(SC(F)(F)F)cc3)cc2)CCOCC1` [Example 382, Tetrahydro-N-hydroxy-4-[[4-[4-[(trifluoromethyl)thio]phenoxy]phenyl]-sulfonyl]-2H-pyran-4-carboxamide], the “t½ Hour” value in data set [1] was 1.71 h.
